In the Kinase Knowledgebase extract (Sharma et al. 2016) one finds IC50 data, which are given here for 60 molecules.

As a reminder, the IC50 is the midpoint of a concentration-inhibition curve. Read a low IC50 as greater potency in that assay.

Molecules are shown by their SMILES.

The target of this assay is PIK3CA (human) (UniProt P42336). The assay can be described thus: Assessment of PIK3CA Kinase Activity.
Chain of PIK3CA (human) (P42336 whole entry, looked up): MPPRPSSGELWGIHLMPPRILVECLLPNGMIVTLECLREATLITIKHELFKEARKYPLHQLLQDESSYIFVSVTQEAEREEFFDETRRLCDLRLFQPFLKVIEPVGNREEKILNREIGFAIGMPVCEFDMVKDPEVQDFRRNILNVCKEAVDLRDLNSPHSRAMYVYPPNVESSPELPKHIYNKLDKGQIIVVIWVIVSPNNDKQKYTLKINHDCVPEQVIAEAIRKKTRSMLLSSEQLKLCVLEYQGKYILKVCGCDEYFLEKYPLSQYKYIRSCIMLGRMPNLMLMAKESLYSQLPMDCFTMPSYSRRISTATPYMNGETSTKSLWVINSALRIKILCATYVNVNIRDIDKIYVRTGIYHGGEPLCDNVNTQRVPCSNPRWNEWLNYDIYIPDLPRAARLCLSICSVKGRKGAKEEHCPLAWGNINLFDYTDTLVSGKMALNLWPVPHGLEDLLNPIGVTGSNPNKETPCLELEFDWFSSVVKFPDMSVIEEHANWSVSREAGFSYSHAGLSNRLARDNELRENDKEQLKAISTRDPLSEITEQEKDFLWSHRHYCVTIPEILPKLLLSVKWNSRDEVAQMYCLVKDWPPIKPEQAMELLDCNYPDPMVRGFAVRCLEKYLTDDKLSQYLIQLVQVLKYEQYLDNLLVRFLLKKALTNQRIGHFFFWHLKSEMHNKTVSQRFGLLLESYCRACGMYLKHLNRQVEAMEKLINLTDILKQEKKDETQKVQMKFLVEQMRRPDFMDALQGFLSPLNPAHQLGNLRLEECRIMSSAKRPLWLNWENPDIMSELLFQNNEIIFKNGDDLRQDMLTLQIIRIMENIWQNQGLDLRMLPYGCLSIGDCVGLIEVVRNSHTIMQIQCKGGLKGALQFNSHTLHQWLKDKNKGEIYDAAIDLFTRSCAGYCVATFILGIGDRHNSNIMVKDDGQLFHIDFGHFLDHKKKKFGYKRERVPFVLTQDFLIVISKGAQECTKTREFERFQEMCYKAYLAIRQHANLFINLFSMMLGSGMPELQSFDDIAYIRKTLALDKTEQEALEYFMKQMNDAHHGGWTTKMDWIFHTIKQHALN
With `COC(C)c1c(C)nc(C)nc1N1CCOc2c(C)cc(-c3cnc4sc(N)nc4c3)cc2C1` (stereo not given), the IC50 was no more than 100 nM.
For `Cc1cc(-c2cnc3sc(N)nc3c2)cc2c1OCCN(c1ncnc(Cl)c1C(C)C)C2`, the IC50 is no more than 100 nM.
`Cc1cc(-c2cnc3sc(N)nc3c2)cc2c1OCCN(c1nc(CN(C)C(C)(C)C)nc(C)c1C(C)C)C2` registered an IC50 of no more than 100 nM.
`Cc1cc(-c2cnc3sc(N)nc3c2)cc2c1OCCN(c1ncncc1C(C)C)C2`: the IC50 is no more than 100 nM.
Consider `Cc1cc(-c2cnc(Cl)c(NS(C)(=O)=O)c2)cc2c1OCCN(c1ncc(C(F)(F)F)c(N)n1)C2`, for which the IC50 was no more than 100 nM.
On to `C=Cc1c(C)nc(N)nc1N1CCOc2c(C)cc(-c3nnc(N)s3)cc2C1`, for which the IC50 is no more than 100 nM.
With `Cc1cc(-c2nnc(N)s2)cc2c1OCCN(c1ncncc1C(C)C)C2` the figure was no more than 100 nM; with `Cc1cnc(N)nc1N1CCOc2c(C)cc(-c3nnc(N)s3)cc2C1`, no more than 100 nM.
For `Cc1cc(-c2cnc3sc(N)nc3c2)cc2c1OCCN(c1nc(N3CC(O)C3)nc(C)c1C(C)C)C2`, the IC50 was no more than 100 nM.
With `Cc1nc(N)nc(N2CCOc3ccc(-c4cnc5sc(N)nc5c4)cc3C2)c1C(C)C` the figure was no more than 100 nM.
On to `Cc1cc(-c2cnc3sc(N)nc3c2)cc2c1OCCN(c1nc(CN(C)C)nc(Cl)c1C(C)C)C2`, for which the IC50 is no more than 100 nM.
In turn, `COCc1c(C)nc(C)nc1N1CCOc2c(C)cc(-c3cnc4sc(N)nc4c3)cc2C1` came in with an IC50 of no more than 100 nM.
Regarding `Cc1cc(-c2cnc3sc(N)nc3c2)cc2c1OCCN(c1nc(CN(C)C)ncc1C(C)C)C2`, the IC50 was no more than 100 nM.
With `Cc1cc(-c2cnc3sc(N)nc3c2)cc2c1OCCN(c1ncccc1C#N)C2`, the IC50 is 100 to 500 nM.
In turn, `COc1nc(C)c(C(C)C)c(N2CCOc3c(C)cc(-c4cnc5sc(N)nc5c4)cc3C2)n1` showed an IC50 of no more than 100 nM.
In turn, `Cc1cc(-c2ccn[nH]2)cc2c1OCCN(c1nc(N)nc(C)c1C(C)C)C2` yielded an IC50 of no more than 100 nM.
The result for `CCc1nc(N)nc(N2CCOc3c(C)cc(-c4cnc5sc(N)nc5c4)cc3C2)c1C(C)C` reads no more than 100 nM.
Regarding `Cc1ncc(-c2cc(C)c3c(c2)CN(c2nc(N)nc(C)c2C(C)C)CCO3)s1`, the IC50 lay in the range of 100 to 500 nM.
In the case of `Cc1cc(-c2cnc3sc(N)nc3c2)cc2c1OCCN(c1ncnc(Cl)c1C(C)(C)O)C2`, the IC50 was in the range of 100 to 500 nM.
Regarding `Cc1cc(-c2cnc3sc(N)nc3c2)cc2c1OCCN(c1nc(CN(C)CCF)nc(C)c1C(C)C)C2`, the IC50 is no more than 100 nM.
Molecule `Cc1cc(-c2cnc3sc(N)nc3c2)cc2c1OCCN(c1nc(N)nc(C)c1C)C2` came in with an IC50 of no more than 100 nM.
`C=Cc1c(C)nc(N)nc1N1CCOc2c(C)cc(-c3cnc4sc(N)nc4c3)cc2C1` came in with an IC50 of no more than 100 nM.
On to `Cc1nc2ncc(-c3cc(C)c4c(c3)CN(c3nc(CNCC(F)F)nc(C)c3C(C)C)CCO4)cc2[nH]1`, for which the IC50 was no more than 100 nM.
With `Cc1cc(-c2cnc3sc(N)nc3c2)cc2c1OCCN(c1ncc(C#N)c(N)n1)C2` the figure was no more than 100 nM; with `C=C(C)c1c(C)nc(N)nc1N1CCOc2c(C)cc(-c3cnc4sc(N)nc4c3)cc2C1`, no more than 100 nM; with `CNc1nc(-c2cc(C)c3c(c2)CN(c2nc(N)nc(C)c2C(C)C)CCO3)cs1`, 100 to 500 nM.
`Cc1cc(-c2ccc(-c3ncc[nH]3)cc2)cc2c1OCCN(c1nc(N)nc(C)c1C(C)C)C2` gave an IC50 of 100 to 500 nM.
On to `Cc1cc(-c2cnc3sc(N)nc3c2)cc2c1OCCN(c1nc(C3CNC3)nc(C)c1C(C)C)C2`, for which the IC50 is no more than 100 nM.
Molecule `Cc1cc(-c2cn(C)nc2C)cc2c1OCCN(c1nc(N)nc(C)c1C(C)C)C2` came in with a concentration for half-maximal inhibition (IC50) of no more than 100 nM.
The result for `Cc1cc(-c2cnc(N)s2)cc2c1OCCN(c1nc(N)nc(C)c1C(C)C)C2` reads no more than 100 nM; that for `Cc1cc(-c2cnc(Cl)c(NS(C)(=O)=O)c2)cc2c1OCCN(c1nc(CNCCF)nc(C)c1C(C)C)C2`, no more than 100 nM.
The molecule `Cc1cc(-c2ccc(N)nc2)cc2c1OCCN(c1nc(N)nc(C)c1C(C)C)C2` returned an IC50 of 100 to 500 nM.
With `Cc1ncc(C(C)C)c(N2CCOc3c(C)cc(-c4cnc5sc(N)nc5c4)cc3C2)n1` the figure was no more than 100 nM; with `Cc1nc2ccc(-c3cc(C)c4c(c3)CN(c3nc(N)nc(C)c3C(C)C)CCO4)cc2[nH]1`, no more than 100 nM; with `Cc1cc(-c2cnc3sc(N)nc3c2)cc2c1OCCN(c1nc([C@@H]3CC(F)(F)CN3)nc(C)c1C(C)C)C2`, no more than 100 nM.
`Cc1cc(-c2cnc3sc(N)nc3c2)cc2c1OCCN(c1nc(C(F)(F)F)nc(C)c1C(C)C)C2`: the IC50 is no more than 100 nM.
`Cc1cc(-c2cccc(O)c2)cc2c1OCCN(c1nc(N)nc(C)c1C(C)C)C2` gave an IC50 of no more than 100 nM.
Molecule `Cc1cc(-c2cnc(Cl)c(NS(C)(=O)=O)c2)cc2c1OCCN(c1nc(CNCC(F)F)nc(C)c1C(C)C)C2` displayed an IC50 of no more than 100 nM.
With `COc1ccc(-c2cc(C)c3c(c2)CN(c2nc(N)nc(C)c2C(C)C)CCO3)cn1` the figure was no more than 100 nM; with `Cc1cc(-c2cnc3sc(N)nc3c2)cc2c1OCCN(c1nc(N)nc(Cl)c1C(C)C)C2`, no more than 100 nM.
`Cc1cc(-c2cnc3sc(N)nc3c2)cc2c1OCCN(c1nc(CN)nc(C)c1C(C)C)C2`: the IC50 is no more than 100 nM.
For `Cc1cc(-c2cnc3sc(N)nc3c2)cc2c1OCCN(c1nccnc1C#N)C2`, the IC50 lay within 100 to 500 nM.
`COCCOc1nc(C)c(C(C)C)c(N2CCOc3c(C)cc(-c4cnc5sc(N)nc5c4)cc3C2)n1` showed an IC50 of no more than 100 nM.
The result for `CCNCc1nc(C)c(C(C)C)c(N2CCOc3c(C)cc(-c4cnc5sc(N)nc5c4)cc3C2)n1` reads no more than 100 nM; that for `Cc1cc(-c2cnc(N)c(S(N)(=O)=O)c2)cc2c1OCCN(c1nc(N)nc(C)c1C(C)C)C2`, no more than 100 nM; that for `Cc1cc(-c2cn[nH]c2)cc2c1OCCN(c1nc(N)nc(C)c1C(C)C)C2`, no more than 100 nM.
Take `CCc1c(C)nc(N)nc1N1CCOc2c(C)cc(-c3cnc4sc(N)nc4c3)cc2C1`: the IC50 was no more than 100 nM.
On to `Cc1cc(-c2cnc(Cl)c(NS(C)(=O)=O)c2)cc2c1OCCN(c1nc(N)nc(C)c1C(C)C)C2`, for which the IC50 was no more than 100 nM.
Molecule `Cc1cc(-c2cnn(C)c2)cc2c1OCCN(c1nc(N)nc(C)c1C(C)C)C2` showed a 50% inhibitory concentration (IC50) of 100 to 500 nM.
`COCCc1c(C)nc(CN2CCCC2)nc1N1CCOc2c(C)cc(-c3cnc4sc(N)nc4c3)cc2C1` registered an IC50 of no more than 100 nM.
`Cc1cc(-c2cnc3sc(N)nc3c2)cc2c1OCCN(c1ncc(C(N)=O)c(N)n1)C2` displayed an IC50 of 100 to 500 nM.
Molecule `CNC(=O)c1sc(N2CCOc3c(C)cc(-c4cnc(Cl)c(NS(C)(=O)=O)c4)cc3C2)nc1C(C)C` returned an IC50 of 100 to 500 nM.
In turn, `Cc1cc(-c2cnc3sc(N)nc3c2)cc2c1OCCN(c1nc(N)nc(C)c1-c1cccc(F)c1)C2` yielded a concentration for half-maximal inhibition (IC50) of no more than 100 nM.
Turning to `COc1ncc(-c2cc(C)c3c(c2)CN(c2nc(N)nc(C)c2C(C)C)CCO3)cn1`, the IC50 was no more than 100 nM.
Consider `Cc1cnccc1N1CCOc2c(C)cc(-c3cnc4sc(N)nc4c3)cc2C1`, for which the IC50 was no more than 100 nM.
With `CCn1cc(-c2cc(C)c3c(c2)CN(c2nc(N)nc(C)c2C(C)C)CCO3)cn1` the figure was 100 to 500 nM; with `Cc1cc(-c2cnc3sc(N)nc3c2)cc2c1OCCN(c1nc(CNCCF)nc(C)c1C(C)C)C2`, no more than 100 nM; with `CCN(CCF)Cc1nc(C)c(C(C)C)c(N2CCOc3c(C)cc(-c4cnc5sc(N)nc5c4)cc3C2)n1`, no more than 100 nM.
For the molecule `Cc1cc(-c2cnc(N)nc2)cc2c1OCCN(c1nc(N)nc(C)c1C(C)C)C2`, the IC50 is no more than 100 nM.
Molecule `Cc1cc(-c2cnc3sc(N)nc3c2)cc2c1OCCN(c1nc(N)nc(C)c1CC1CC1)C2` had a half-maximal inhibitory concentration (IC50) of no more than 100 nM.
